Experiment [1] concerns the target T1, Calpain-2 catalytic subunit (Sus scrofa, UniProt P43367).
T1 sequence (P43367 whole entry): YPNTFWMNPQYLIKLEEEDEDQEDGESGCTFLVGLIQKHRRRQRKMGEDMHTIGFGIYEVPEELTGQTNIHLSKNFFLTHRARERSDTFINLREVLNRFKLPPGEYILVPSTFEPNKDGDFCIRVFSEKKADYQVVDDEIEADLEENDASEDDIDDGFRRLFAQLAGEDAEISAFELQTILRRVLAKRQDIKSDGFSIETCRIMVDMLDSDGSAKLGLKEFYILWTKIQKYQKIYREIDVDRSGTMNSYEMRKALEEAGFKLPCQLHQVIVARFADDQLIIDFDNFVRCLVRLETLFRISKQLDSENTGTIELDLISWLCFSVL
Description: pig calpain II inhibitor potency, dose response, biochemical, fluorogenic peptide substrate (AID 1420). The format is functional.

The next experiment concerns H9c2. Description: cells. The format is functional, cell-based. As to conditions: Rattus norvegicus, H9c2, Myocardium.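 Further: confirmatory concentration-response retest of ultra-high-throughput screening hits for modulation of myocardial damage; cell death induced by hydrogen peroxide oxidative stress; compound pretreatment for 60 min then peroxide exposure for 2 h; potency is for protecting the cells against peroxide damage rather than for killing them.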
A short description of experiment [2]: inhibitors of firefly luciferase expression or activity, dose response, H4 neuroglioma cells, luminescence (AID 1990). It is filed as functional, cell-based.
Experiment [3] deals with BJ. The experiment in a line: cytotoxicity toward BJ-TERT fibroblasts, dose response, cell-based, RAS-independent, luminescence (AID 1933). It is filed as functional. Particulars: Homo sapiens.
Experiment [4] can be described thus: Luminescence Cell-Based Dose Response HTS to Identify Inhibitors of 5'UTR Stem-Loop Driven Prion Protein mRNA Translation in H4 Neuroglioblastoma Cells. [Related pubchem assays: 1827 (Project Summary), 1813 (Primary HTS)]. The format is functional.
The nature of experiment [5]: inhibitors of SNCA 5'UTR-driven reporter translation, confirmation, H4 neuroglioma cells, luminescence (AID 1988). The format is functional, cell-based.
The test system of experiment [6] is BJ. The experiment in a line: cells. As to conditions: Homo sapiens. The format is functional, cell-based.
For experiment [7], the system named is BJ. Description: cytotoxicity toward BJ-TERT-LT-ST fibroblasts, dose response, cell-based, RAS-independent, luminescence (AID 1935).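 Further: BJ fibroblasts immortalized with TERT plus LT and ST oncogenes.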 It is filed as functional. As to conditions: Homo sapiens.
Experiment [8] in a line: cytotoxicity toward DRD oncogenic fibroblasts, dose response, cell-based, non-viral oncogenic, luminescence (AID 1934). The format is functional. As to conditions: Homo sapiens.
Another experiment concerns INS1. The experiment in a line: beta cell apoptosis inhibitors, cytokine rescue, dose response, luminescence, retest (AID 449756).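 Further: cell death triggered by IL-1 beta plus TNF-alpha plus IFN-gamma mixture; protective hits raise ATP signal compared with cytokine alone wells.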 It is filed as functional, cell-based. As to conditions: Rattus norvegicus.
Experiment [9] can be described thus: Luminescence Cell-Based Dose Confirmation HTS to Identify Activators of 5'UTR Stem-Loop Driven Alpha-Synuclein mRNA Translation in H4 Neuroglioblastoma Cells. [Related pubchem assays: 1829 (Project Summary), 1814 (Primary HTS)]. The format is functional.
Experiment [10] is described as follows: Luminescence Cell-Based Dose Response HTS to Identify Activators of Luciferase Translation or Activity in H4 […] Cells. [Related pubchem assays: 1829 (Project Summary), 1814 (Primary HTS)]. The format is functional.
For another experiment, the system named is H4. Description: Luminescence Cell-Based Dose Response HTS to Identify Activators of 5'UTR Stem-Loop Driven Prion Protein mRNA Translation in H4 Neuroglioblastoma Cells. [Related pubchem assays: 1829 (Project Summary), 1814 (Primary HTS)]. It is filed as functional. Particulars: Homo sapiens.
Experiment [11] concerns the target Luciferin 4-monooxygenase (Photinus pyralis, UniProt P08659). Description: firefly luciferase enzyme inhibitors, dose response, biochemical, luminescence (AID 1891).
Experiment [12] is described as follows: Luminescence Cell-Based Dose Confirmation HTS to Identify Inhibitors of Platelet Dense Granule Release. [Related pubchem assays: 1663 (Primary HTS), 1678 (Summary of Project)]. It is filed as functional.
Experiment [13] in a line: inhibitors of intracellular T. cruzi replication, confirmation, NIH3T3 host cells, beta-gal luminescence (AID 2044).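 Further: intracellular parasites grown in NIH/3T3 mouse fibroblasts as host cells; luminescent beta-galactosidase reporter signal from transgenic T. cruzi replicating inside host cells; inhibitors lower the luminescence signal.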 The format is functional, cell-based.
Experiment [14] can be described thus: cytotoxicity toward NIH3T3 fibroblasts, dose response, counter-screen, cell-based, ATP luminescence, mouse fibroblasts (AID 2010).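 Further: cells exposed to compound for about 90 hours before reading.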 It is filed as functional. Background: The purpose of a counterscreen is to sort out artefacts and off-target activity.
For experiment [15], the target named is T2, Rac GTPase-activating protein 1 (Homo sapiens, UniProt Q9H0H5).
T2 sequence (Q9H0H5 whole entry): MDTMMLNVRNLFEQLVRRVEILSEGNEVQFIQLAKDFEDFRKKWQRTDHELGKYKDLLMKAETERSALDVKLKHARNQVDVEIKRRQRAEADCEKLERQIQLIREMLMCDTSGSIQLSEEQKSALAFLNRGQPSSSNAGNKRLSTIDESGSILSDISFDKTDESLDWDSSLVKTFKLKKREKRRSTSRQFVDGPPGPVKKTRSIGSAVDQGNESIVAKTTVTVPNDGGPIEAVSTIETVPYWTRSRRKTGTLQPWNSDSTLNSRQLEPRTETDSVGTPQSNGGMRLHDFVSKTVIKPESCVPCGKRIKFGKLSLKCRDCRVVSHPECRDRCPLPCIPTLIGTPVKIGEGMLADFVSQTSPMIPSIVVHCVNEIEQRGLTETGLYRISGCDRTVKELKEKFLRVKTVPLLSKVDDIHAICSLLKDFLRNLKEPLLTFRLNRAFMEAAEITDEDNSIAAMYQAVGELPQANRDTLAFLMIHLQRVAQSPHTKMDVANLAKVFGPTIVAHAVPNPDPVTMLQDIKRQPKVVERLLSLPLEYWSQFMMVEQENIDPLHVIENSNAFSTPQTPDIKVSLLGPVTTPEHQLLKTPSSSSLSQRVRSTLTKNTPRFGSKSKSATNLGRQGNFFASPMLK
The experiment in a line: MgcRacGAP GTPase-activating activity inhibitors, confirmation, biochemical, ADP Hunter fluorescence, primary and confirmatory (AID 624330). It is filed as functional.

Molecules are shown by their SMILES. The source made the active and inactive calls. For most assays here, no stated cut-off is given here; in the data, actives have a measured EC50 and inactives only a lower limit. Some results are limits rather than exact numbers.

Sequence of Luciferin 4-monooxygenase (P08659 whole entry): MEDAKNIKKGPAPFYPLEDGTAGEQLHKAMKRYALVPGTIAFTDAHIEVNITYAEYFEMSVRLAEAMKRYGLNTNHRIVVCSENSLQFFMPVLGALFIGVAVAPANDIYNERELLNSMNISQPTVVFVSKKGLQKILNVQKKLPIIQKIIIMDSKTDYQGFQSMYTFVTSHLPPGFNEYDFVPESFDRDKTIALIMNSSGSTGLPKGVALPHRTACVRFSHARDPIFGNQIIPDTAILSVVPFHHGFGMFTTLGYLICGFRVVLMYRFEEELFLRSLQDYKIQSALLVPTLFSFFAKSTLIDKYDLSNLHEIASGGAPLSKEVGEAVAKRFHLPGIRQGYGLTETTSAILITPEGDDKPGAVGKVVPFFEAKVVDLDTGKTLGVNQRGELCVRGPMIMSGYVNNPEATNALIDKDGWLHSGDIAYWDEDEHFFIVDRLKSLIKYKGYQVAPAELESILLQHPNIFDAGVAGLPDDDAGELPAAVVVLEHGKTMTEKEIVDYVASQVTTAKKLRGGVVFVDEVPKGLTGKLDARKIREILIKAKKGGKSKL

Consider `COc1cccc(NC(=O)N(C2CCCCC2)C(C)c2cccs2)c1` (centres undefined), for which the half-maximal inhibitory concentration (IC50) (as a rule, the midpoint of a concentration-inhibition curve) in [1] is given as 8.59 µM (not active).
On to `Cn1c2ccc(F)cc2c2nnc(NN)nc21`, for which, in the experiment on H9c2, the IC50 is > 79 µM (inactive).
Take `CCn1nc(C(=O)OCC(=O)c2c[nH]c3ccccc23)c2ccccc2c1=O`: the values for the half-maximal inhibitory concentration (IC50) (in experiment [1]; in the experiment on H9c2) were 3.99 µM (not active) and > 79 µM (inactive), respectively.
Regarding `O=C(NNC(=O)c1cc(OCC(F)(F)F)ccc1OCC(F)(F)F)c1ccc(Cl)c(Cl)c1`, in experiment [1], the IC50 is 6.1 µM (not active).
In the case of `O=C(NCc1ccccc1)C1=C[C@@H](c2csc3ccccc23)C[C@@H](OCCCCO)O1`, the EC50 (in general, the midpoint of the concentration-response curve) in experiment [2] is 11.2 µM (active); in the experiment on BJ [3] it was 22.8 µM (inconclusive); in experiment [4] it was 10.5 µM (active); in experiment [5] it was 9.75 µM (active); in the experiment with BJ [6] it was 35.8 µM (active); in the experiment with BJ [7] it was > 150 µM (not active). Also, in [8], the EC50 is 28.4 µM (active). Further, the AC50 (usually the concentration at which the activity in the assay is half-maximal) with INS1 is 1.43 µM (active).
As for `O=CNc1cc(-c2ccc(C(=O)NC3CC3)cc2)cn2c(-c3ccccc3)cnc12`, the IC50 with H9c2 was > 79 µM (inactive).
Consider `COc1ccc(N2CCN(C(=O)Cn3cnc4c(cnn4-c4ccccc4)c3=O)CC2)cc1`, for which the IC50 in experiment [1] is on record as 4.18 µM (not active).
For `N=C(NOC(=O)c1cc(Cl)ccc1Cl)c1ccncc1`, the values for the EC50 (in experiment [9]; in [10]; with H4) were 9.04 µM (active), 1.87 µM (active) and 28.1 µM (active), respectively.
For the compound `O=c1c2c(-c3cccs3)csc2ncn1-n1cccc1`, the concentration for half-maximal inhibition (IC50) in experiment [1] is > 50 µM (not active).
For `COC(=O)C(Cc1ccc(O)cc1)NC(=O)C12CC3CC(CC(C3)C1)C2` (centres undefined), the EC50 is > 112 µM (not active) in experiment [11] and 17.2 µM (active) in experiment [12].
For `CC(C)(C)n1nc2c(c1NC(=O)c1cc([N+](=O)[O-])ccc1Cl)CS(=O)(=O)C2`, the EC50 in experiment [9] was 17.8 µM (active); in experiment [10], 18.9 µM (active); in the experiment with H4 it was > 120 µM (not active).
Take `CCOc1ccc(C(C(=O)NC2CCCC2)N(C(=O)c2snc(C(N)=O)c2N)c2cccc(O)c2)cc1` (centres undefined): in the experiment on H9c2, the IC50 is > 79 µM (inactive).
Take `Cc1ccc(NC(=O)c2cc(S(=O)(=O)N3CCOCC3)cn2C)c(C)c1`: the half-maximal effective concentration (EC50) in [11] and in experiment [12] was > 112 µM (not active) in each case.
For the compound `O=C(CCc1nc(O)c2ccccc2n1)Nc1ccc(Cl)c(Cl)c1`, the concentration for half-maximal inhibition (IC50) with H9c2 was 15.4 µM (active).
As to `COc1cccc(OCCNC(=O)c2cccc(OC)c2)c1`, the concentration giving a half-maximal response (EC50) in experiment [11] and in experiment [12] was > 112 µM (not active) in each case.
On to `CCn1c(SCC(=O)N2CCCC(C)C2)nnc1-c1ccco1` (centres undefined), for which the EC50 in [11] and in experiment [12] was > 112 µM (not active) each time.
On to `CCN(C(=O)COC(=O)c1cc(-c2cccs2)nc2ccccc12)C1CCS(=O)(=O)C1` (centres undefined), for which the EC50 in experiment [11] and in [12] was > 112 µM (not active) throughout.
For the compound `CCCCc1c(O)nc(SCC(=O)N2CCOCC2)nc1O`, the EC50 in [11] and in experiment [12] was > 112 µM (not active) in each case.
Consider `Cc1nn(C)c(Oc2ccccc2)c1CCNC(=O)CCl`, for which the 50% effective concentration (EC50) is 28.9 µM (active) in the experiment with BJ [3], > 150 µM (not active) in the experiment with BJ [6], > 150 µM (not active) in the experiment on BJ [7] and > 150 µM (not active) in experiment [8].
With `COc1ccc(OCC(=O)NCc2nnc(O)c3ccccc23)cc1`, the IC50 with H9c2 was > 79 µM (inactive).
For the compound `N#CCCSc1ccccc1NC(=O)c1cc(=O)c2ccccc2o1`, the 50% inhibitory concentration (IC50) with H9c2 was 19.3 µM (active).
Take `Cc1ccc(Nc2c([N+](=O)[O-])nn(-c3ccc4c(c3)OCCO4)[n+]2[O-])c(Cl)c1`: the EC50 in experiment [13] is 0.199 µM (active); in experiment [14], > 60 µM (not active). Further, in [1], the concentration for half-maximal inhibition (IC50) is recorded as 23.1 µM (not active).
As for `CCOc1ccc(N(CC(=O)Nc2cccc(OC)c2)S(=O)(=O)c2c(C)noc2C)cc1`, in experiment [1], the IC50 was 5.86 µM (not active).
On to `Cc1nc2sc3c(c2c(=O)n1NC(=O)CCl)CCCC3`, for which the half-maximal effective concentration (EC50) with BJ [3] was 30.8 µM (active); in the experiment on BJ [6], > 150 µM (not active); in the experiment on BJ [7], > 150 µM (inconclusive); in experiment [8], > 150 µM (not active).
As to `Cc1ccc(CN(C)C(=O)COC(=O)CSc2ccc(C(N)=O)cc2[N+](=O)[O-])cc1`, in the experiment with H9c2, the IC50 is > 79 µM (inactive).
On to `Cc1ccc(NC(=O)CNC(=O)c2ccccc2F)cc1Cl`, for which the IC50 in experiment [1] is recorded as 37.6 µM (not active).
On to `CN1CCN(c2ccc(NC(=O)COc3ccccc3)cc2Cl)CC1`, for which the EC50 in [9] was 0.214 µM (active); in experiment [10] it was 0.229 µM (active); in the experiment on H4, 66.9 µM (active).
With `Cc1cc(NC(=O)COc2nnc(-c3ccccc3)c3ccccc23)no1`, the IC50 in the experiment with H9c2 is 32.3 µM (inactive).
Consider `c1csc(-c2nn3c(Cn4nnc5ccccc54)nnc3s2)c1`, for which the concentration for a half-maximal effect (EC50) in [11] and in experiment [12] was > 112 µM (not active) each time.
Consider `CCOc1cc(NC(=O)C2CC2)c(OCC)cc1NC(=O)c1ccccn1`, for which the IC50 in the experiment with H9c2 is 12.6 µM (active).
With `N#Cc1cc2c(nc1SCC(=O)Nc1sc3c(c1C#N)CCC3)CCC2`, the 50% effective concentration (EC50) in the experiment on BJ [3] was 98.7 µM (active); with BJ [6] it was > 150 µM (not active); in the experiment on BJ [7] it was > 75 µM (not active); in experiment [8], 32.8 µM (active).
In the case of `Oc1ccc(Br)cc1/C=N/c1ccc2c3c(cccc13)CC2`, the IC50 in the experiment with H9c2 was > 79 µM (inactive); in experiment [15], 33.5 µM (active).
Regarding `O=C1CN(c2ccccc2)C(=S)N1C(=O)c1ccccc1`, the figures for the EC50 (in [9]; in experiment [10]; in the experiment with H4) were 57.7 µM (active), 106 µM (active) and 15.7 µM (inconclusive), respectively.
On to `CC(=O)Nc1ccc(NC(=O)Cn2nc([N+](=O)[O-])c(Br)c2C)cc1`, for which, in experiment [1], the IC50 is 11.6 µM (not active).

These data come from ChEMBL document CHEMBL1201862, “PubChem BioAssay data set” (2004).
